In patent publication US11649242B2, “Pyrrolopyrrole compositions as pyruvate kinase (PKR) activators” (FORMA Therapeutics, Inc., priority 2017, dated 2023):

Experiments:
Type in all cases: biochemical
PKR(R510Q) = PKR(R510Q) (Homo sapiens, UniProt P30613, R510Q); test: Luminescence Assay Protocol (Kinase Glo Plus), PKR(R510Q/without FBP); conditions: PKRR510Q, without FBP; for activation at 1.54 µM: compound 1.54 μM, read-out: F - AC50 LUM KGP woFBP % Fold @ 1.54 μM mean; for AC50: gmean, read-out: D - AC50 LUM KGP woFBP AC50 μM gmean; for Emax: read-out: E - AC50 LUM KGP woFBP MAX % FOLD mean
Protocol: (§1) Example 47: PKR(Wt/without FBP), PKR(G332S/with FBP), PKR(R510Q/without FBP)
(§2) The phosphorylation of Adenosine-5′-diphosphate (ADP) by various mutants of PKR was determined by the Kinase Glo Plus Assay (Promega) in the presence or absence of FBP [D-Fructose-1,6-diphosphate; BOC Sciences, CAS: 81028-91-3] as follows. Unless otherwise indicated, all reagents were purchased from Sigma-Aldrich. All reagents were prepared in buffer containing 50 mM Tris-HCl, 100 mM KCl, 5 mM MgCl2, and 0.01% Triton X100, 0.03% BSA, and 1 mM DTT. Enzyme and PEP [Phospho(enol) pyruvic acid] were added at 2× to all wells of an assay-ready plate containing serial dilutions of test compounds or DMSO vehicle. Final enzyme concentrations for PKR(wt), PKR(R510Q), and PKR(G332S) were 0.8 nM, 0.8 nM, and 10 nM respectively. Final PEP concentration was 100 μM. The Enzyme/PEP mixture was incubated with compounds for 30 minutes at RT before the assay was initiated with the addition of 2×ADP [Adenosine-5′-diphosphate] and KinaseGloPlus. Final concentration of ADP was 100 μM. […] For assays containing FBP, that reagent is added at 30 μM upon reaction initiation. Reactions were allowed to progress for 45 minutes at RT until luminescence was recorded by the BMG PHERAstar FS Multilabel Reader. All compounds were tested in triplicate at concentrations ranging from 42.5 μM to 2.2 nM in 0.83% DMSO.
(§3) Luminescence values were converted to % Fold increase by normalizing to the average of the DMSO control and multiplying by 100. Max, min, slope and AC50 were determined by the standard four parameter fit algorithm of ActivityBase XE Runner. Compounds were evaluated with three parameters—AC50, MAX % Fold, and % Fold@1.54 μM (FIG. 1). The AC50 value for a compound is the concentration […] corresponding to the midway between the maximum and minimum values of the four parameter logistic curve fit (i.e., at which the % fold increase along the four parameter logistic curve fit is halfway between MAX % Fold and MIN % Fold (% Fold Midpoint)), MAX % Fold is the highest fold increase observed at any concentration of compound, and % Fold@1.54 μM is the fold increase at a compound concentration of 1.54 μM. The parameter % Fold@1.54 μM was selected to capture elements of both the AC50 and MAX % Fold and to provide a ranking based on both potency and effect. The compound concentration of 1.54 μM was chosen as one that can optimally differentiate the set of compounds based on the range of activities observed.
(§4) As set forth in Tables 6 and 7 below, AC50 values (columns A, D, G) are defined as follows: ≤0.1 μM (+++); >0.1 μM and ≤1.0 μM (++); >1.0 μM and ≤40 μM (+); >40 μM (0). Max % FOLD values (columns B, E, H) are defined as follows: ≤75% (+); >75% and ≤250% (++); >250% and ≤500% (+++). % Fold@1.54 μM values (columns C, F, I) are defined as follows: ≤75% (+); >75% and ≤250% (++); >250% and ≤500% (+++).

PKR(wt) = PKR(wt) (Homo sapiens, UniProt P30613); test: Luminescence Assay Protocol (Kinase Glo Plus), PKR(Wt/without FBP); conditions: without FBP; for activation at 1.54 µM: compound 1.54 μM, read-out: I - AC50 LUM KGP woFBP % Fold @ 1.54 μM mean; for AC50: gmean, read-out: G - AC50 LUM KGP woFBP AC50 μM gmean; for Emax: highest % fold increase at any concentration, read-out: H - AC50 LUM KGP woFBP MAX % FOLD mean
Protocol: as §1, §2, §3, §4

PKR(G332S) = PKR(G332S) (Homo sapiens, UniProt P30613, G332S); test: Luminescence Assay Protocol (Kinase Glo Plus), PKR(G332S/with FBP); conditions: PKRG332S, with FBP; for AC50: gmean, read-out: A - AC50 LUM KGP FBP AC50 μM gmean; for activation at 1.54 µM: compound 1.54 μM, read-out: C - AC50 LUM KGP FBP % Fold @ 1.54 μM mean; for Emax: highest % fold increase at any concentration, read-out: B - AC50 LUM KGP FBP MAX % FOLD mean
Protocol: as §1, §2, §3, §4

[1] = highest % fold increase at any concentration

Chain of PKR(wt) (P30613 whole entry): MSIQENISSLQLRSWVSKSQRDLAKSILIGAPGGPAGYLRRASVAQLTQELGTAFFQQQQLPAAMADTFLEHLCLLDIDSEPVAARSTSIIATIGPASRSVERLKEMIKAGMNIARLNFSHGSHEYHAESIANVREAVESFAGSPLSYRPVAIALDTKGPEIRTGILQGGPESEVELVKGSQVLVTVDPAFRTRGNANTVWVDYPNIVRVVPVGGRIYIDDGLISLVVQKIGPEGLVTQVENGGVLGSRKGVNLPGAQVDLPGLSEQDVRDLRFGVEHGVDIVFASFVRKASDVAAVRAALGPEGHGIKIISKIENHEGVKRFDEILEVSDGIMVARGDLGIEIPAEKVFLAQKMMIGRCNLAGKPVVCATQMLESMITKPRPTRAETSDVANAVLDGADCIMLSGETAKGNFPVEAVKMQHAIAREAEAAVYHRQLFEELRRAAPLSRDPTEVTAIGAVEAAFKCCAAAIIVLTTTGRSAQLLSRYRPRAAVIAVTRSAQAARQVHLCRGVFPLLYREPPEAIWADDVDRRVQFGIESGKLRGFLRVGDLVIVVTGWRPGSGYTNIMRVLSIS
Chain of PKR(G332S) (P30613 whole entry G332S): as the sequence (P30613 whole entry) above, with G332S counted along it
Chain of PKR(R510Q) (P30613 whole entry R510Q): as the sequence (P30613 whole entry) above, with R510Q counted along it

| SMILES | activation at 1.54 µM (PKR(R510Q)) [%] | AC50 (PKR(R510Q)) [µM] | E - AC50 LUM KGP woFBP MAX % FOLD mean (PKR(R510Q); [1]) | activation at 1.54 µM (PKR(wt)) [%] | AC50 (PKR(wt)) [µM] | Emax (PKR(wt)) [%] | AC50 (PKR(G332S)) [µM] | activation at 1.54 µM (PKR(G332S)) [%] | Emax (PKR(G332S)) [%] | Emax (PKR(R510Q); [1]) [%] |
| --- | --- | --- | --- | --- | --- | --- | --- | --- | --- | --- |
| O=C(C(CO)c1ccccn1)N1CC2=C(C1)CN(S(=O)(=O)c1cnc3c(c1)OCCO3)C2 (single isomer, unassigned) [Example 4, (S or R)-1-(5-((2,3-dihydro-[1,4]dioxino[2,3-b]pyridin-7-yl)sulfonyl)-3,4,5,6-tetrahydropyrrolo[3,4-c]pyrrol-2(1H)-yl)-3-hydroxy-2-(pyridin-2-yl)propan-1-one] | 75 to 250 | 1 to 40 | ++ (>75% and ≤250% (++)) | 75 to 250 | 1 to 40 | 75 to 250 | – | – | – | – |
| O=C(C(CO)c1ccccn1)N1CC2=C(C1)CN(S(=O)(=O)c1ccc(OC(F)F)cc1)C2 (single isomer, unassigned) [Example 42, (R or S)-1-(5-((4-(difluoromethoxy)phenyl)sulfonyl)-3,4,5,6-tetrahydropyrrolo[3,4-c]pyrrol-2(1H)-yl)-3-hydroxy-2-(pyridin-2-yl)propan-1-one] | – | – | – | – | – | – | ≤ 0.1 | – | – | – |
| O=C(C(CO)c1ccccc1)N1CC2=C(C1)CN(S(=O)(=O)c1ccc3occc3c1)C2 (stereo not shown) [Example 8, 1-(5-(benzofuran-5-ylsulfonyl)-3,4,5,6-tetrahydropyrrolo[3,4-c]pyrrol-2(1H)-yl)-3-hydroxy-2-phenylpropan-1-one] | – | – | – | 250 to 500 | ≤ 0.1 | 250 to 500 | – | – | – | – |
| CC(C)(CO)C(=O)N1CC2=C(C1)CN(S(=O)(=O)c1ccc3occc3c1)C2 [Example 9, 1-(5-(benzofuran-5-ylsulfonyl)-3,4,5,6-tetrahydropyrrolo[3,4-c]pyrrol-2(1H)-yl)-3-hydroxy-2,2-dimethylpropan-1-one] | – | – | – | 75 to 250 | ≤ 0.1 | 75 to 250 | – | – | – | – |
| CC(CO)(CO)C(=O)N1CC2=C(C1)CN(S(=O)(=O)c1ccc3occc3c1)C2 [Example 10, 1-(5-(benzofuran-5-ylsulfonyl)-3,4,5,6-tetrahydropyrrolo[3,4-c]pyrrol-2(1H)-yl)-3-hydroxy-2-(hydroxymethyl)-2-methylpropan-1-one] | – | – | – | 75 to 250 | ≤ 0.1 | 250 to 500 | – | – | – | – |
| CCC(CO)(CO)C(=O)N1CC2=C(C1)CN(S(=O)(=O)c1ccc3occc3c1)C2 [Example 11, 1-(5-(benzofuran-5-ylsulfonyl)-3,4,5,6-tetrahydropyrrolo[3,4-c]pyrrol-2(1H)-yl)-2,2-bis(hydroxymethyl)butan-1-one] | – | – | – | 75 to 250 | 0.1 to 1 | 250 to 500 | – | – | – | – |
| O=C([C@@H]1CCOC1)N1CC2=C(C1)CN(S(=O)(=O)c1ccc3occc3c1)C2 [Example 12, (R)-(5-(benzofuran-5-ylsulfonyl)-3,4,5,6-tetrahydropyrrolo[3,4-c]pyrrol-2(1H)-yl)(tetrahydrofuran-3-yl)methanone] | – | – | – | 250 to 500 | 0.1 to 1 | 250 to 500 | – | – | – | – |
| O=C([C@H]1CCOC1)N1CC2=C(C1)CN(S(=O)(=O)c1ccc3occc3c1)C2 [Example 13, (S)-(5-(benzofuran-5-ylsulfonyl)-3,4,5,6-tetrahydropyrrolo[3,4-c]pyrrol-2(1H)-yl)(tetrahydrofuran-3-yl)methanone] | – | – | – | 75 to 250 | 0.1 to 1 | 250 to 500 | – | – | – | – |
| COCC1(C(=O)N2CC3=C(C2)CN(S(=O)(=O)c2ccc4occc4c2)C3)CC1 [Example 17, (5-(benzofuran-5-ylsulfonyl)-3,4,5,6-tetrahydropyrrolo[3,4-c]pyrrol-2(1H)-yl)(1-(methoxymethyl)cyclopropyl)methanone] | – | – | – | 75 to 250 | 0.1 to 1 | 75 to 250 | – | – | – | – |
| O=C(C(CO)c1ccccc1)N1CC2=C(C1)CN(S(=O)(=O)c1ccc3c(c1)OCCO3)C2 (stereo not shown) [Example 18, 1-(5-((2,3-dihydrobenzo[b][1,4]dioxin-6-yl)sulfonyl)-3,4,5,6-tetrahydropyrrolo[3,4-c]pyrrol-2(1H)-yl)-3-hydroxy-2-phenylpropan-1-one] | 75 to 250 | ≤ 0.1 | – | – | – | – | > 40 | 75 to 250 | 75 to 250 | 75 to 250 |
| Cc1nc2ccc(S(=O)(=O)N3CC4=C(CN(C(=O)C(C)(C)CO)C4)C3)cc2o1 [Example 21, 3-hydroxy-2,2-dimethyl-1-(5-((2-methylbenzo[d]oxazol-6-yl)sulfonyl)-3,4,5,6-tetrahydropyrrolo[3,4-c]pyrrol-2(1H)-yl)propan-1-one] | – | – | – | 75 to 250 | 1 to 40 | 75 to 250 | – | – | – | – |
| O=C(CCO)N1CC2=C(C1)CN(S(=O)(=O)c1ccc3occc3c1)C2 [Example 22, 1-(5-(benzofuran-5-ylsulfonyl)-3,4,5,6-tetrahydropyrrolo[3,4-c]pyrrol-2(1H)-yl)-3-hydroxypropan-1-one] | – | – | – | 250 to 500 | 0.1 to 1 | 250 to 500 | – | – | – | – |
| C[C@@H](O)CC(=O)N1CC2=C(C1)CN(S(=O)(=O)c1ccc3occc3c1)C2 [Example 23, (R)-1-(5-(benzofuran-5-ylsulfonyl)-3,4,5,6-tetrahydropyrrolo[3,4-c]pyrrol-2(1H)-yl)-3-hydroxybutan-1-one] | – | – | – | 250 to 500 | 0.1 to 1 | 250 to 500 | – | – | – | – |
| C[C@H](O)CC(=O)N1CC2=C(C1)CN(S(=O)(=O)c1ccc3occc3c1)C2 [Example 24, (S)-1-(5-(benzofuran-5-ylsulfonyl)-3,4,5,6-tetrahydropyrrolo[3,4-c]pyrrol-2(1H)-yl)-3-hydroxybutan-1-one] | – | – | – | 75 to 250 | 0.1 to 1 | 250 to 500 | – | – | – | – |
| CC(C)(O)CC(=O)N1CC2=C(C1)CN(S(=O)(=O)c1ccc3occc3c1)C2 [Example 25, 1-(5-(benzofuran-5-ylsulfonyl)-3,4,5,6-tetrahydropyrrolo[3,4-c]pyrrol-2(1H)-yl)-3-hydroxy-3-methylbutan-1-one] | – | – | – | 75 to 250 | 0.1 to 1 | 250 to 500 | – | – | – | – |
| COc1ccc(S(=O)(=O)N2CC3=C(CN(C(=O)CCO)C3)C2)cc1 [Example 40, 3-hydroxy-1-(5-((4-methoxyphenyl)sulfonyl)-3,4,5,6-tetrahydropyrrolo[3,4-c]pyrrol-2(1H)-yl)propan-1-one] | 75 to 250 | 1 to 40 | – | – | – | – | – | – | – | 250 to 500 |
| O=C(CCO)N1CC2=C(C1)CN(S(=O)(=O)c1ccc(OC(F)F)cc1)C2 [Example 54, 1-(5-((4-(difluoromethoxy)phenyl)sulfonyl)-3,4,5,6-tetrahydropyrrolo[3,4-c]pyrrol-2(1H)-yl)-3-hydroxypropan-1-one] | 75 to 250 | 1 to 40 | – | 75 to 250 | 1 to 40 | 250 to 500 | – | – | – | 250 to 500 |
| O=C(C1COCCN1)N1CC2=C(C1)CN(S(=O)(=O)c1ccc3ncsc3c1)C2 (stereo not shown) [Example 56, (5-(benzo[d]thiazol-6-ylsulfonyl)-3,4,5,6-tetrahydropyrrolo[3,4-c]pyrrol-2(1H)-yl)(morpholin-3-yl)methanone] | 75 to 250 | 1 to 40 | – | – | – | – | > 40 | 75 to 250 | 75 to 250 | 75 to 250 |
